Experimental data as given in article PMC6825221, “In silico re-engineering of a neurotransmitter to activate KCNQ potassium channels in an isoform-specific manner” (Communications Biology, 2019).

Biological target: KCNQ2-R213A/KCNQ3-R242A (Homo sapiens, UniProt O43525+O43526, R213A/R242A)
Assay: TEVC of RA/RA mutant KCNQ2/3
Assay type: cell-based
Settings: GABA up to 1 mM
Text: We generated cRNA transcripts encoding human KCNQ1, KCNQ2, KCNQ3, KCNQ4, KCNQ5 or GLRA1 (NM_001146040) (GenScript, Piscataway, NJ, USA) by in vitro transcription using the T7 polymerase mMessage mMachine kit (Thermo Fisher Scientific), after vector linearization, from cDNA sub-cloned into plasmids incorporating Xenopus laevis β-globin 5′ and 3′ UTRs flanking the coding region to enhance translation and cRNA stability. We quantified cRNA by spectrophotometry. […] We injected defolliculated stage V and VI Xenopus laevis oocytes (Ecocyte Bioscience, Austin, TX and Xenoocyte, Dexter, MI) with KCNQ channel α subunit (5-20 ng) or GLRA1 (20 ng) cRNAs. We incubated the oocytes at 16 °C in Barth’s saline solution (Ecocyte Bioscience) containing penicillin and streptomycin, with daily washing, for 2–5 days prior to two-electrode voltage-clamp (TEVC) recording.
For recording, oocytes were placed in a small-volume oocyte bath (Warner) and viewed them with a dissection microscope. […] Currents were recorded in response to voltage pulses between −120 or −80 mV and + 40 mV at 20 mV intervals from a holding potential of −80 mV, to yield current-voltage relationships, current magnitude, and for quantifying activation rate. We analyzed data using Clampfit (Molecular Devices) and Graphpad Prism software (GraphPad, San Diego, CA, USA); values are stated as mean ± SEM. […]

activation / sensitivity of RA/RA mutant KCNQ2/3: larger reduction in sensitivity
SMILES: CS(=O)(=O)N(CC(=O)O)c1cccc(F)c1 [3FMSG]
